Experimental data from patent US20120082626A1, “USE OF R-BAMBUTEROL AS INHALED MEDICAMENT AND COMBINATION THERAPIES FOR TREATMENT OF RESPIRATORY DISORDERS” (priority 2009, published 2012).

Tested on: OVA evoked asthma in sensitized guinea-pigs
Assay: Relief of antigen-evoked asthma by inhalation after challenge in OVA sensitized guinea-pigs
Type: in vivo
Conditions: nebulized drug inhaled after antigen challenge
From the text: In an embodiment of the invention, the ovalbumin (OVA) sensitized guinea-pigs were first challenged with nebulized antigen to evoke asthma, then the animals were allowed to inhale nebulized R-bambuterol or bambuterol. […] In a further embodiment of the invention, the sensitized guinea-pigs were first pretreated with nebulized R-bambuterol or bambuterol by inhalation. After three minutes, the same animals were challenged with nebulized antigen. […] The fast onset of action in the invention can also not be explained by Svenssion's in vitro metabolic study noted above that the dominate product is mono-carbamate bambuterol and litter terbutaline at initial phase., while the major amount of terbutaline will be formed at much later phase. (Svensson et al., 1988).

For `CN(C)C(=O)Oc1cc(OC(=O)N(C)C)cc([C@@H](O)CNC(C)(C)C)c1` [R-bambuterol], the “relief of asthmatic symptoms after inhalation” value was “immediately relieved within matter of tenths of seconds to a couple of minutes”.
